Laboratory results from PMC9775191, “A Subset Screen of the Compounds Australia Scaffold Library Identifies 7-Acylaminodibenzoxazepinones as Potent and Selective Hits for Anti-Giardia Drug Discovery” (Biomedicines, 2022).

Tested on: Escherichia coli (ATCC 25922)
Assay: Anti-bacterial activity assay
Type: cell-based
Settings: Escherichia coli, ATCC25922, 50 µM; read-out: Bacterial Inhibition E. coli
Description: (§1) The activity of compounds against methicillin resistant Staphylococcus aureus (ATCC 43300), Escherichia coli (ATCC 25922), Acinetobacter baumannii (ATCC 19606) and Klebsiella pneumoniae (ATCC 700603) was assessed at 50 µM in duplicate as previously described. In brief, mid-log phase bacteria cultures were added to 384-well microtiter plate wells containing compound to final cell density of 5 × 10^5 CFU/mL in 50 µL. Plates were then covered and incubated at 37 °C for 18 h without shaking. Inhibition of bacterial growth was determined by measuring absorbance at 600 nm (Tecan M1000 Pro monochromator plate reader) and calculating percentage growth inhibition relative to the negative media and bacteria without inhibitors. Vancomycin hydrochloride (Sigma-Aldrich an affiliate of Merck KGaA, Darmstadt, Germany, #861987) and colistin sulfate (Sigma-Aldrich an affiliate of Merck KGaA, Darmstadt, Germany, C4461) were on each plate as positive controls for Gram-positive (S. aureus) and Gram-negative (E. coli, A. baumannii and K. pneumoniae) bacteria, respectively.

SMILES | inhibition at 50 µM [%]
COc1ccc(C)cc1N1C(=O)C(c2ccccc2)C(c2nc3ccccc3s2)=C1N (stereo not drawn) [SN00776374, COc1ccc(C)cc1N1C(=C(c2nc3ccccc3s2)C(c2ccccc2)C1=O)N] | 2.94

Tested on: Acinetobacter baumannii (ATCC 19606)
Assay: Anti-bacterial activity assay
Type: cell-based
Settings: ATCC19606, 50 µM
Description: as §1

SMILES | inhibition at 50 µM [%]
COc1ccc(C)cc1N1C(=O)C(c2ccccc2)C(c2nc3ccccc3s2)=C1N (stereo not drawn) [SN00776374, COc1ccc(C)cc1N1C(=C(c2nc3ccccc3s2)C(c2ccccc2)C1=O)N] | 13.3

Tested on: Klebsiella pneumoniae (ATCC 700603)
Assay: Anti-bacterial activity assay
Type: cell-based
Settings: ATCC700603, 50 µM, read-out: Bacterial Inhibition K. pneumoniae
Description: as §1

SMILES | inhibition at 50 µM [%]
COc1ccc(C)cc1N1C(=O)C(c2ccccc2)C(c2nc3ccccc3s2)=C1N (stereo not drawn) [SN00776374, COc1ccc(C)cc1N1C(=C(c2nc3ccccc3s2)C(c2ccccc2)C1=O)N] | 11.7

Tested on: methicillin resistant Staphylococcus aureus (ATCC 43300)
Assay: Anti-bacterial activity assay
Type: cell-based
Settings: Staphylococcus aureus, ATCC43300, 50 µM; read-out: Bacterial Inhibition S. aureus
Description: as §1

SMILES | inhibition at 50 µM [%]
COc1ccc(C)cc1N1C(=O)C(c2ccccc2)C(c2nc3ccccc3s2)=C1N (stereo not drawn) [SN00776374, COc1ccc(C)cc1N1C(=C(c2nc3ccccc3s2)C(c2ccccc2)C1=O)N] | 16.6

Tested on: Neonatal foreskin fibroblast (NFF) cells
Assay: Mammalian cell cytotoxicity assay (sulforhodamine B)
Type: cell-based, human
Settings: Homo sapiens, NFF; 20 µM; ±SD
Description: The selectivity of compounds of interest was assessed against NFF cells. Assays were performed using sulforhodamine B and included media only, negative (no compound, no DMSO), and vehicle (DMSO) controls as previously described. A chloroquine control plate was included in each assay. […] Repurchased SN00797640 was tested in dose–response from 100 µM against NFF. Selectivity indices (SI) were calculated by dividing mammalian cell IC50 values by G. duodenalis BRIS/91/HEPU/1279 IC50 values.

SMILES | inhibition at 20 µM [%]
COc1ccc(C)cc1N1C(=O)C(c2ccccc2)C(c2nc3ccccc3s2)=C1N (stereo not drawn) [SN00776374, COc1ccc(C)cc1N1C(=C(c2nc3ccccc3s2)C(c2ccccc2)C1=O)N] | 100.4 ± 0.2

Same assay, conditions: Table S2; NFF vs 48 h Giardia IC50

SMILES | SI (48h Gd)
COc1ccc(C)cc1N1C(=O)C(c2ccccc2)C(c2nc3ccccc3s2)=C1N (stereo not drawn) [SN00776374, COc1ccc(C)cc1N1C(=C(c2nc3ccccc3s2)C(c2ccccc2)C1=O)N] | < 20

Tested on: G. duodenalis BRIS/91/HEPU/1279
Assay: Giardia dose response assay, assemblage B
Type: cell-based, Giardia duodenalis
Settings: Giardia duodenalis, 24 h, read-out: G. duodenalis IC50 24h, Table S2; 24 h; ±SD; max 10 µM
Description: In these assays, compounds were serially diluted (8–12-point doubling dilutions in technical duplicate) in DMSO control media, with all test wells inoculated with parasites (1.5 × 10^4 parasites for BRIS/91/HEPU/1279 and BRIS/91/HEPU/1279m1, or 3 × 10^3 parasites for BRIS/87/HEPU/713). […] All plates were sealed in culture chambers and gassed with 3% O2, 5% CO2 in N2 and incubated at 37 °C for 48 h, with parasites imaged and enumerated at 24 and 48 h. Growth inhibition was calculated as a percentage relative to vehicle controls minus any background as described above and IC50 values were determined using log-linear interpolation as previously described. […] Statistical comparison of IC50 values when required were performed using Student’s t-test.

SMILES | IC50 [µM]
COc1ccc(C)cc1N1C(=O)C(c2ccccc2)C(c2nc3ccccc3s2)=C1N (stereo not drawn) [SN00776374, COc1ccc(C)cc1N1C(=C(c2nc3ccccc3s2)C(c2ccccc2)C1=O)N] | 1.76 ± 0.35

Same assay, conditions: Giardia duodenalis, 48 h, Table S2; 48 h; ±SD; max 10 µM; read-out: G. duodenalis IC50 48h

SMILES | IC50 [µM]
COc1ccc(C)cc1N1C(=O)C(c2ccccc2)C(c2nc3ccccc3s2)=C1N (stereo not drawn) [SN00776374, COc1ccc(C)cc1N1C(=C(c2nc3ccccc3s2)C(c2ccccc2)C1=O)N] | 1.01 ± 0.29

Tested on: G. duodenalis BRIS/91/HEPU/1279
Assay: Primary Giardia screen at 10 µM (live-cell imaging, automated counting)
Type: cell-based, Giardia duodenalis
Settings: 48 h
Outline: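 Percent growth versus 0.2% DMSO vehicle, background-corrected with media-only wells, is reported at 24 and 48 h from automated live-cell counts. Testing used 10 μM final in a 3% O2 atmosphere, with plate quality checked by Z' factor.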

SMILES | Average % Inhibition 48h [%]
COc1ccc(C)cc1N1C(=O)C(c2ccccc2)C(c2nc3ccccc3s2)=C1N (stereo not drawn) [SN00776374, COc1ccc(C)cc1N1C(=C(c2nc3ccccc3s2)C(c2ccccc2)C1=O)N] | > 90

Same assay, conditions: Giardia duodenalis, 24 h, first singlicate assay, read-out: % Inhibition n=1 24h

SMILES | inhibition at 10 µM [%]
COc1ccc(C)cc1N1C(=O)C(c2ccccc2)C(c2nc3ccccc3s2)=C1N (stereo not drawn) [SN00776374, COc1ccc(C)cc1N1C(=C(c2nc3ccccc3s2)C(c2ccccc2)C1=O)N] | 90.5

Same assay, conditions: Giardia duodenalis, 24 h, re-assessment, read-out: % Inhibition n=2 24h

SMILES | inhibition at 10 µM [%]
COc1ccc(C)cc1N1C(=O)C(c2ccccc2)C(c2nc3ccccc3s2)=C1N (stereo not drawn) [SN00776374, COc1ccc(C)cc1N1C(=C(c2nc3ccccc3s2)C(c2ccccc2)C1=O)N] | 90

Same assay, conditions: Giardia duodenalis, 24 h, read-out: Average % Inhibition 24h

SMILES | inhibition at 10 µM [%]
COc1ccc(C)cc1N1C(=O)C(c2ccccc2)C(c2nc3ccccc3s2)=C1N (stereo not drawn) [SN00776374, COc1ccc(C)cc1N1C(=C(c2nc3ccccc3s2)C(c2ccccc2)C1=O)N] | 90.3

Same assay, conditions: Giardia duodenalis, 48 h, first singlicate assay, read-out: % Inhibition n=1 48h

SMILES | inhibition at 10 µM [%]
COc1ccc(C)cc1N1C(=O)C(c2ccccc2)C(c2nc3ccccc3s2)=C1N (stereo not drawn) [SN00776374, COc1ccc(C)cc1N1C(=C(c2nc3ccccc3s2)C(c2ccccc2)C1=O)N] | 95.8

Same assay, conditions: Giardia duodenalis, 48 h, re-assessment, read-out: % Inhibition n=2 48h

SMILES | inhibition at 10 µM [%]
COc1ccc(C)cc1N1C(=O)C(c2ccccc2)C(c2nc3ccccc3s2)=C1N (stereo not drawn) [SN00776374, COc1ccc(C)cc1N1C(=C(c2nc3ccccc3s2)C(c2ccccc2)C1=O)N] | 97.6

Same assay, conditions: Giardia duodenalis, 48 h, read-out: Average % Inhibition 48h

SMILES | inhibition at 10 µM [%]
COc1ccc(C)cc1N1C(=O)C(c2ccccc2)C(c2nc3ccccc3s2)=C1N (stereo not drawn) [SN00776374, COc1ccc(C)cc1N1C(=C(c2nc3ccccc3s2)C(c2ccccc2)C1=O)N] | 96.7
